According to PubChem BioAssay (NCI):
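GI50 = concentration required for 50% inhibition of growth. The concentration for full growth arrest is given as TGI.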

How the values were obtained:
Assay in all cases: NCI-60 cell line screen, 384-well format
786-0 renal = tested on: 786-0 renal
A498 renal = tested on: A498 renal
A549 NSCLC = tested on: A549 NSCLC
ACHN renal = tested on: ACHN renal
BT-549 breast = tested on: BT-549 breast
CAKI-1 renal = tested on: CAKI-1 renal
CCRF-CEM leukemia = tested on: CCRF-CEM leukemia
DU-145 prostate = tested on: DU-145 prostate
EKVX NSCLC = tested on: EKVX NSCLC
HCC-2998 colon = tested on: HCC-2998 colon
HCT-116 colon = tested on: HCT-116 colon
HCT-15 colon = tested on: HCT-15 colon
HL-60(TB) leukemia = tested on: HL-60(TB) leukemia
HOP-62 NSCLC = tested on: HOP-62 NSCLC
HOP-92 NSCLC = tested on: HOP-92 NSCLC
HS 578T breast = tested on: HS 578T breast
HT29 colon = tested on: HT29 colon
IGROV1 ovarian = tested on: IGROV1 ovarian
K-562 leukemia = tested on: K-562 leukemia
KM12 colon = tested on: KM12 colon
LOX IMVI melanoma = tested on: LOX IMVI melanoma
M14 melanoma = tested on: M14 melanoma
MALME-3M melanoma = tested on: MALME-3M melanoma
MDA-MB-231 breast = tested on: MDA-MB-231 breast
MDA-MB-435 melanoma = tested on: MDA-MB-435 melanoma
MDA-MB-468 breast = tested on: MDA-MB-468 breast
MOLT-4 leukemia = tested on: MOLT-4 leukemia
NCI-H226 lung = tested on: NCI-H226 lung
NCI-H23 lung = tested on: NCI-H23 lung
NCI-H322M lung = tested on: NCI-H322M lung
NCI-H460 NSCLC = tested on: NCI-H460 NSCLC
NCI-H522 lung = tested on: NCI-H522 lung
NCI/ADR-RES ovarian = tested on: NCI/ADR-RES ovarian
OVCAR-3 ovarian = tested on: OVCAR-3 ovarian
OVCAR-4 ovarian = tested on: OVCAR-4 ovarian
OVCAR-5 ovarian = tested on: OVCAR-5 ovarian
OVCAR-8 ovarian = tested on: OVCAR-8 ovarian
PC-3 prostate = tested on: PC-3 prostate
RPMI-8226 leukemia = tested on: RPMI-8226 leukemia
RXF 393 renal = tested on: RXF 393 renal
SF-268 CNS = tested on: SF-268 CNS
SF-295 CNS = tested on: SF-295 CNS
SF-539 CNS = tested on: SF-539 CNS
SK-MEL-28 melanoma = tested on: SK-MEL-28 melanoma
SK-MEL-5 melanoma = tested on: SK-MEL-5 melanoma
SK-OV-3 ovarian = tested on: SK-OV-3 ovarian
SN12C renal = tested on: SN12C renal
SNB-19 CNS = tested on: SNB-19 CNS
SNB-75 CNS = tested on: SNB-75 CNS
SR leukemia = tested on: SR leukemia
SW-620 colon = tested on: SW-620 colon
T-47D breast = tested on: T-47D breast
TK-10 renal = tested on: TK-10 renal
U251 glioblastoma = tested on: U251 glioblastoma
UACC-257 melanoma = tested on: UACC-257 melanoma
UO-31 renal = tested on: UO-31 renal

Nc1cc(C(F)(F)F)c(-c2cc(N3CCOCC3)nc(N3CCOCC3)n2)cn1
GI50 ([…]-0 renal): 1970 nM | TGI (786-0 renal): 7000 nM | GI50 (A498 renal): 387 nM | TGI (A498 renal): 1870 nM | GI50 (A549 NSCLC): 360 nM | TGI (A549 NSCLC): 12400 nM | GI50 (ACHN renal): 246 nM | TGI (ACHN renal): 10000 nM | GI50 (BT-549 breast): 691 nM | TGI (BT-549 breast): 4610 nM | GI50 (CAKI-1 renal): 230 nM | TGI (CAKI-1 renal): 804 nM | GI50 (CCRF-CEM leukemia): 589 nM | TGI (CCRF-CEM leukemia): 1880 nM | GI50 (DU-145 prostate): 1990 nM | TGI (DU-145 prostate): 13900 nM | GI50 (EKVX NSCLC): 793 nM | TGI (EKVX NSCLC): 6280 nM | GI50 (HCC-2998 colon): 1080 nM | TGI (HCC-2998 colon): 3370 nM | GI50 (HCT-116 colon): 852 nM | TGI (HCT-116 colon): 7530 nM | GI50 (HCT-15 colon): 394 nM | TGI (HCT-15 colon): 4110 nM | GI50 (HL-60(TB) leukemia): 280 nM | TGI (HL-60(TB) leukemia): 1300 nM | GI50 (HOP-62 NSCLC): 264 nM | TGI (HOP-62 NSCLC): 2730 nM | GI50 (HOP-92 NSCLC): 562 nM | TGI (HOP-92 NSCLC): 4000 nM | GI50 (HS 578T breast): 443 nM | TGI (HS 578T breast): 1750 nM | GI50 (HT29 colon): 715 nM | TGI (HT29 colon): > 100000 nM | GI50 (IGROV1 ovarian): 209 nM | TGI (IGROV1 ovarian): 572 nM | GI50 (K-562 leukemia): 459 nM | TGI (K-562 leukemia): 1830 nM | GI50 (KM12 colon): 894 nM | TGI (KM12 colon): 20200 nM | GI50 (LOX IMVI melanoma): 1180 nM | TGI (LOX IMVI melanoma): 10700 nM | GI50 (M14 melanoma): 416 nM | TGI (M14 melanoma): 8850 nM | GI50 (MALME-3M melanoma): 272 nM | TGI (MALME-3M melanoma): 838 nM | GI50 (MDA-MB-231 breast): 819 nM | TGI (MDA-MB-231 breast): 44900 nM | GI50 (MDA-MB-435 melanoma): 223 nM | TGI (MDA-MB-435 melanoma): 449 nM | GI50 (MDA-MB-468 breast): 230 nM | TGI (MDA-MB-468 breast): 618 nM | GI50 (MOLT-4 leukemia): 333 nM | TGI (MOLT-4 leukemia): 1330 nM | GI50 (NCI-H226 lung): 574 nM | TGI (NCI-H226 lung): 4130 nM | GI50 (NCI-H23 lung): 310 nM | TGI (NCI-H23 lung): 2260 nM | GI50 (NCI-H322M lung): 1620 nM | TGI (NCI-H322M lung): 7010 nM | GI50 (NCI-H460 NSCLC): 419 nM | TGI (NCI-H460 NSCLC): 1670 nM | GI50 (NCI-H522 lung): 341 nM | TGI (NCI-H522 lung): 1300 nM | GI50 (NCI/ADR-RES ovarian): 265 nM | TGI (NCI/ADR-RES ovarian): 1670 nM | GI50 (OVCAR-3 ovarian): 546 nM | TGI (OVCAR-3 ovarian): 2460 nM | GI50 (OVCAR-4 ovarian): 1260 nM | TGI (OVCAR-4 ovarian): 6660 nM | GI50 (OVCAR-5 ovarian): 687 nM | TGI (OVCAR-5 ovarian): > 100000 nM | GI50 (OVCAR-8 ovarian): 460 nM | TGI (OVCAR-8 ovarian): 14000 nM | GI50 (PC-3 prostate): 462 nM | TGI (PC-3 prostate): 6930 nM | GI50 (RPMI-8226 leukemia): 185 nM | TGI (RPMI-8226 leukemia): 385 nM | GI50 (RXF 393 renal): 285 nM | TGI (RXF 393 renal): 1300 nM | GI50 (SF-268 CNS): 384 nM | TGI (SF-268 CNS): 4570 nM | GI50 (SF-295 CNS): 361 nM | TGI (SF-295 CNS): 1540 nM | GI50 (SF-539 CNS): 1210 nM | TGI (SF-539 CNS): 2910 nM | GI50 (SK-MEL-28 melanoma): 485 nM | TGI (SK-MEL-28 melanoma): 3340 nM | GI50 (SK-MEL-5 melanoma): 235 nM | TGI (SK-MEL-5 melanoma): 762 nM | GI50 (SK-OV-3 ovarian): 560 nM | TGI (SK-OV-3 ovarian): 2550 nM | GI50 (SN12C renal): 1220 nM | TGI (SN12C renal): 7120 nM | GI50 (SNB-19 CNS): 2030 nM | TGI (SNB-19 CNS): 7760 nM | GI50 (SNB-75 CNS): 287 nM | TGI (SNB-75 CNS): 1190 nM | GI50 (SR leukemia): 45.9 nM | TGI (SR leukemia): 160 nM | GI50 (SW-620 colon): 358 nM | TGI (SW-620 colon): > 100000 nM | GI50 (T-47D breast): 231 nM | TGI (T-47D breast): 776 nM | GI50 (TK-10 renal): 572 nM | TGI (TK-10 renal): 2730 nM | GI50 (U251 glioblastoma): 1770 nM | TGI (U251 glioblastoma): 4370 nM | GI50 (UACC-257 melanoma): 930 nM | TGI (UACC-257 melanoma): 7270 nM | GI50 (UO-31 renal): 340 nM | TGI (UO-31 renal): 3070 nM
